From PubChem BioAssay AID248 (DTP/NCI, 2004)
Where “and” joins values, the source holds several entries; their conditions need not be identical. Equal entries are not always repeated. Inconclusive results and toxic doses are left out.

Test system: L1210 leukemia ip in BDF1 mice, survival T/C
Assay: NCI In Vivo Anticancer Drug Screen. Data for tumor model L1210 Leukemia (intraperitoneal) in B6D2F1 (BDF1) mice
Details: endpoint: mean survival time, higher = longer survival
Procedure, shortened: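 Transplanted-tumor mice were given test agent; controls received vehicle only. Survival readings from the two groups were divided (treated over control).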

[1] = dose: 100.0 mg/kg/injection, schedule: Q04DX002 (ip), vehicle: saline with Tween-80
[2] = dose: 200.0 mg/kg/injection, schedule: Q04DX002 (ip), vehicle: saline with Tween-80
[3] = dose: 400.0 mg/kg/injection, schedule: Q04DX002 (ip), vehicle: saline with Tween-80
[4] = dose: 100.0 mg/kg/injection, schedule: Q01DX001 (ip), vehicle: other
[5] = dose: 200.0 mg/kg/injection, schedule: Q01DX001 (ip), vehicle: other
[6] = dose: 400.0 mg/kg/injection, schedule: Q01DX001 (ip), vehicle: other
[7] = dose: 50.0 mg/kg/injection, schedule: Q01DX001 (ip), vehicle: Klucel (hydroxypropylcellulose) (HPC)
[8] = dose: 100.0 mg/kg/injection, schedule: Q04DX003 (ip), vehicle: Klucel (hydroxypropylcellulose) (HPC)
[9] = dose: 200.0 mg/kg/injection, schedule: Q04DX003 (ip), vehicle: Klucel (hydroxypropylcellulose) (HPC)
[10] = dose: 400.0 mg/kg/injection, schedule: Q04DX003 (ip), vehicle: Klucel (hydroxypropylcellulose) (HPC)
[11] = dose: 100.0 mg/kg/injection, schedule: Q01DX009 (ip), vehicle: Klucel (hydroxypropylcellulose) (HPC)
[12] = dose: 200.0 mg/kg/injection, schedule: Q01DX009 (ip), vehicle: Klucel (hydroxypropylcellulose) (HPC)
[13] = dose: 400.0 mg/kg/injection, schedule: Q01DX009 (ip), vehicle: Klucel (hydroxypropylcellulose) (HPC)

CCCS(=O)(=O)N1CCCC1
T/C [1]: 99 % of control | T/C [2]: 105 % of control | T/C [3]: 99 % of control

CCOC(=O)CC(C[N+](=O)[O-])C(F)(F)F (configuration not stated)
T/C [4]: 103 % of control | T/C [5]: 97 % of control | T/C [6]: 103 % of control

COc1cccc(CCOC(C)=O)c1
T/C [1]: 94 % of control | T/C [2]: 108 % of control | T/C [3]: 97 % of control

Cc1c2cccc(Sc3ccc(F)cc3)c2c2c3c(cccc13)[S+](c1ccc(F)cc1)C2 (configuration not stated)
T/C (dose: 12.5 mg/kg/injection, schedule: Q01DX001 (ip), vehicle: Klucel (hydroxypropylcellulose) (HPC)): 100 % of control | T/C (dose: 25.0 mg/kg/injection, schedule: Q01DX001 (ip), vehicle: Klucel (hydroxypropylcellulose) (HPC)): 94 % of control | T/C [7]: 90 % of control

CCCCCCCCNC(C)C1=C(O)c2ccccc2C(=O)C1=O (configuration not stated)
T/C (dose: 100.0 mg/kg/injection, schedule: Q01DX001 (ip), vehicle: saline with Tween-80): 89 % of control | T/C (dose: 200.0 mg/kg/injection, schedule: Q01DX001 (ip), vehicle: saline with Tween-80): 86 % of control | T/C (dose: 400.0 mg/kg/injection, schedule: Q01DX001 (ip), vehicle: saline with Tween-80): 86 % of control

C#CC(O)c1ccccc1 (configuration not stated)
T/C (dose: 12.5 mg/kg/injection, schedule: Q04DX003 (ip), vehicle: Klucel (hydroxypropylcellulose) (HPC)): 94 % of control | T/C (dose: 25.0 mg/kg/injection, schedule: Q04DX003 (ip), vehicle: Klucel (hydroxypropylcellulose) (HPC)): 99 % of control | T/C (dose: 50.0 mg/kg/injection, schedule: Q04DX003 (ip), vehicle: Klucel (hydroxypropylcellulose) (HPC)): 101 % of control

CCN(CC)CC(=O)N1Cc2ccccc2CCc2ccccc2C1
T/C (dose: 100.0 mg/kg/injection, schedule: Q04DX003 (ip), vehicle: saline): 92 % of control

O=c1[nH]nc(SCc2ccccc2)c(=O)n1C(c1ccccc1)c1ccccc1
T/C [4]: 90 % of control | T/C [5]: 90 % of control | T/C [6]: 98 % of control

Cc1cc2c3ccc(C)[n+](C)c3ccc2n1C
T/C (dose: 1.25 mg/kg/injection, schedule: Q01DX009 (ip), vehicle: saline): 109 % of control | T/C (dose: 2.5 mg/kg/injection, schedule: Q01DX009 (ip), vehicle: saline): 115 % of control | T/C (dose: 2.5 mg/kg/injection, schedule: Q04DX003 (ip), vehicle: saline): 112 % of control | T/C (dose: 5.0 mg/kg/injection, schedule: Q01DX009 (ip), vehicle: saline): 115 % of control | T/C (dose: 5.0 mg/kg/injection, schedule: Q04DX003 (ip), vehicle: saline): 110 % of control | T/C (dose: 9.5 mg/kg/injection, schedule: Q01DX001 (ip), vehicle: saline): 106 % of control | T/C (dose: 10.0 mg/kg/injection, schedule: Q04DX003 (ip), vehicle: saline): 112 % of control | T/C (dose: 20.0 mg/kg/injection, schedule: Q04DX003 (ip), vehicle: saline): 103 % of control

Cc1cc(C)c(NC(=O)NCCCl)cc1C
T/C [8]: 104 % of control | T/C [9]: 89 % of control | T/C [10]: 93 % of control

O=C(NCc1ccco1)Nc1ccccc1Cl
T/C (dose: 155.0 mg/kg/injection, schedule: Q01DX Z (ip), vehicle: methylcellulose (MC)): 100 % of control | T/C (dose: 233.0 mg/kg/injection, schedule: Q01DX Z (ip), vehicle: methylcellulose (MC)): 100 % of control | T/C (dose: 350.0 mg/kg/injection, schedule: Q01DX Z (ip), vehicle: methylcellulose (MC)): 94 % of control

Cc1cc(N(CCO)CCO)c(C)cc1NC(=O)c1ccccc1
T/C (dose: 100.0 mg/kg/injection, schedule: Q01DX001 (ip), vehicle: carboxymethylcellulose (CMC)): 106 % of control | T/C (dose: 200.0 mg/kg/injection, schedule: Q01DX001 (ip), vehicle: carboxymethylcellulose (CMC)): 101 % of control | T/C (dose: 400.0 mg/kg/injection, schedule: Q01DX001 (ip), vehicle: carboxymethylcellulose (CMC)): 94 % of control

O=C(C1OC1c1ccccc1)C1OC1c1ccccc1 (configuration not stated)
T/C [11]: 98 % of control | T/C [12]: 101 % of control | T/C [13]: 95 % of control

O[C@@H]1CCCC[C@@H]1n1cnc2c(=S)nc[nH]c21
T/C (dose: 100.0 mg/kg/injection, schedule: Q01DX009 (ip), vehicle: saline with Tween-80): 97 % of control | T/C (dose: 100.0 mg/kg/injection, schedule: Q04DX003 (ip), vehicle: saline with Tween-80): 98 % of control | T/C (dose: 200.0 mg/kg/injection, schedule: Q01DX009 (ip), vehicle: saline with Tween-80): 93 % of control | T/C (dose: 200.0 mg/kg/injection, schedule: Q04DX003 (ip), vehicle: saline with Tween-80): 93 % of control | T/C (dose: 400.0 mg/kg/injection, schedule: Q01DX009 (ip), vehicle: saline with Tween-80): 92 % of control | T/C (dose: 400.0 mg/kg/injection, schedule: Q04DX003 (ip), vehicle: saline with Tween-80): 91 % of control

O=S(=O)(Nc1cccc(C(F)(F)F)c1)c1ccccc1
T/C [11]: 106 % of control | T/C [8]: 98 % of control | T/C [12]: 107 % of control | T/C [9]: 97 % of control | T/C [13]: 101 % of control | T/C [10]: 95 % of control

CCC(C(O)c1ccccc1)[N+](=O)[O-] (configuration not stated)
T/C (dose: 100.0 mg/kg/injection, schedule: Q04DX003 (ip), vehicle: other): 100 % of control | T/C (dose: 200.0 mg/kg/injection, schedule: Q04DX003 (ip), vehicle: other): 100 % of control | T/C (dose: 400.0 mg/kg/injection, schedule: Q04DX003 (ip), vehicle: other): 96 % of control

O=C(O)CCc1cnc2ccccc2n1
T/C [11]: 97 % of control | T/C [8]: 106 % of control | T/C [12]: 95 % of control | T/C [9]: 95 % of control | T/C [13]: 96 % of control | T/C [10]: 92 % of control

CN(CC(=O)O)C(=O)c1ccccc1
T/C (dose: 75.0 mg/kg/injection, schedule: Q01DX001 (ip), vehicle: saline): 96 % of control | T/C (dose: 150.0 mg/kg/injection, schedule: Q01DX001 (ip), vehicle: saline): 96 % of control

O=C(NC1CCC(NC(=O)N2CC2)CC1)N1CC1 (configuration not stated)
T/C (dose: 0.12 mg/kg/injection, schedule: Q01DX009 (ip), vehicle: carboxymethylcellulose (CMC)): 116 % of control | T/C (dose: 0.29 mg/kg/injection, schedule: Q01DX009 (ip), vehicle: carboxymethylcellulose (CMC)): 120 % of control | T/C (dose: 0.8 mg/kg/injection, schedule: Q01DX009 (ip), vehicle: carboxymethylcellulose (CMC)): 164 % of control | T/C (dose: 1.0 mg/kg/injection, schedule: Q01DX009 (ip), vehicle: carboxymethylcellulose (CMC)): 118 % of control | T/C (dose: 1.2 mg/kg/injection, schedule: Q01DX009 (ip), vehicle: carboxymethylcellulose (CMC)): 164 % of control | T/C (dose: 1.3 mg/kg/injection, schedule: Q01DX001 (ip), vehicle: carboxymethylcellulose (CMC)): 114 % of control and 115 % of control | T/C (dose: 1.3 mg/kg/injection, schedule: Q01DX009 (ip), vehicle: carboxymethylcellulose (CMC)): 94 % of control | T/C (dose: 1.8 mg/kg/injection, schedule: Q01DX009 (ip), vehicle: carboxymethylcellulose (CMC)): 170 % of control | T/C (dose: 2.0 mg/kg/injection, schedule: Q01DX001 (ip), vehicle: carboxymethylcellulose (CMC)): 112 % of control and 123 % of control | T/C (dose: 2.0 mg/kg/injection, schedule: Q01DX009 (ip), vehicle: carboxymethylcellulose (CMC)): 94 % of control | T/C (dose: 2.5 mg/kg/injection, schedule: Q01DX009 (ip), vehicle: carboxymethylcellulose (CMC)): 120 % of control | T/C (dose: 3.0 mg/kg/injection, schedule: Q01DX001 (ip), vehicle: carboxymethylcellulose (CMC)): 119 % of control | T/C (dose: 3.37 mg/kg/injection, schedule: Q01DX009 (ip), vehicle: carboxymethylcellulose (CMC)): 97 % of control | T/C (dose: 4.5 mg/kg/injection, schedule: Q01DX001 (ip), vehicle: carboxymethylcellulose (CMC)): 151 % of control

CC(C)CC1NC(=O)C(NC(=O)C(Cc2ccccc2)N(C)C)C(C(C)C)Oc2ccc(cc2)/C=C\NC1=O (configuration not stated)
T/C [7]: 90 % of control | T/C (dose: 100.0 mg/kg/injection, schedule: Q01DX001 (ip), vehicle: Klucel (hydroxypropylcellulose) (HPC)): 90 % of control | T/C (dose: 200.0 mg/kg/injection, schedule: Q01DX001 (ip), vehicle: Klucel (hydroxypropylcellulose) (HPC)): 93 % of control
